According to paper PMC4726048 (2016):
Blank lines part the entries; values can stand above or below the compound they belong to.

What was measured:
[1] = tested on: ON1 (adenosine aptamer) (DNA, aptamer) ACCTGGGGGAGTATTGCGGAGGAAGGT; assay: luminescence displacement assay (complex 1/ON1/ON2); settings: 100 mM NaCl, 10 mM MgCl2, 75 mM K+, 20 mM Tris-HCl pH 7.4, 37 °C
[2] = tested on: central loop, 5'-G3T3G3TnG3T3G3-3', n = 15 (DNA, G4) GGGTTTGGGTTTTTTTTTTTTTTTGGGTTTGGG; assay: luminescence enhancement; settings: 1 μM compound; 8.3-fold enhancement
[3] = tested on: F10T (DNA, hairpin, HEG linker between nt 8 and 9) TATAGCTATATAGCTATAT; assay: FRET melting; settings: 0.2 μM DNA; 3 μM compound
[4] = tested on: CCR5-DEL (DNA, single strand) CTCATTTTCCATACATTAAAGATAGTCAT; assay: luminescence enhancement; settings: 20 mM Tris-HCl pH 7.4; 1 μM compound, 5 μM DNA
[5] = tested on: ON2m (DNA, single strand) AAGTTTCCGACTCCCCCAGGTGCCTTTGAA; assay: luminescence enhancement; settings: ON2m used in place of ON2 in adenosine assay; 80 μM adenosine
[6] = tested on: ON2 (DNA, G4) GGGTTTGGGACTCCCCCAGGTGGGTTTGGG; assay: G4-FID (thiazole orange displacement); settings: Tris-HCl buffer; thiazole orange displaced; 0.25 μM DNA
[7] = tested on: 3'-side loop, 5'-G3T3G3T3G3TnG3-3', n = 1 (DNA, G4) GGGTTTGGGTTTGGGTGGG; assay: luminescence enhancement; settings: 1 μM compound; 2.3-fold enhancement
[8] = tested on: ds17 (DNA, duplex) CCAGTTCGTAGTAACCC/GGGTTACTACGAACTGG; assay: G4-FID (thiazole orange displacement); settings: Tris-HCl buffer; thiazole orange displaced; 0.25 μM DNA; under 50% displaced at highest concentration tested
[9] = tested on: 5'-side loop, 5'-G3TnG3T3G3T3G3-3', n = 15 (DNA, G4) GGGTTTTTTTTTTTTTTTGGGTTTGGGTTTGGG; assay: luminescence enhancement; settings: 1 μM compound; 6.9-fold enhancement
[10] = tested on: F21T (DNA, G4) GGGTTAGGGTTAGGGTTAGGG; assay: FRET melting; settings: 0.2 μM DNA; 3 μM compound
[11] = tested on: 3'-side loop, 5'-G3T3G3T3G3TnG3-3', n = 15 (DNA, G4) GGGTTTGGGTTTGGGTTTTTTTTTTTTTTTGGG; assay: luminescence enhancement; settings: 1 μM compound; 7.2-fold enhancement
[12] = tested on: 5'-side loop, 5'-G3TnG3T3G3T3G3-3', n = 1 (DNA, G4) GGGTGGGTTTGGGTTTGGG; assay: luminescence enhancement; settings: 1 μM compound; 2.7-fold enhancement
[13] = tested on: central loop, 5'-G3T3G3TnG3T3G3-3', n = 1 (DNA, G4) GGGTTTGGGTGGGTTTGGG; assay: luminescence enhancement; settings: 1 μM compound; 2.4-fold enhancement
[14] = ON2 capture strand, 200 μM highest tested

SMILES: Nc1ccn([C@@H]2O[C@H](CO)[C@@H](O)[C@H]2O)c(=O)n1
binding [1, 14]: no

SMILES: O=c1ccn([C@@H]2O[C@H](CO)[C@@H](O)[C@H]2O)c(=O)[nH]1
binding [1, 14]: no

binding [2]: yes
ΔTm [3]: 3.0 °C
binding [4]: weak
binding [5]: weak
G4DC50 [6]: 7.0 µM
binding [7]: yes
binding [8]: weak
binding [9]: yes
ΔTm [10]: ~ 7.0 °C
binding [11]: yes
binding [12]: yes
binding [13]: yes
SMILES: Cc1cccnc1-c1[c-]cccc1.Cc1cccnc1-c1[c-]cccc1.[Ir+3].c1ccc(-c2ccc3ccc4ccc(-c5ccccc5)nc4c3n2)cc1

SMILES: Nc1nc2c(ncn2[C@@H]2O[C@H](CO)[C@@H](O)[C@H]2O)c(=O)[nH]1
binding [1, 14]: no

SMILES: Nc1ncnc2c1ncn2[C@@H]1O[C@H](CO)[C@@H](O)[C@H]1O
binding ([1]; ON2 capture strand displaced): yes
